Columns and labels:
[1] = test system: DLD-1 BRCA2(−/−); assay: Cell growth inhibition assay (CellTiter-Glo cell viability, 7 days); assay type: cell-based; conditions: Homo sapiens, 168 h, DLD-1 BRCA2(-/-) cells
[2] = test system: MDA-MB-436 (mutated BRCA1) cell lines; assay: as above; assay type: cell-based; conditions: Homo sapiens, 168 h, MDA-MB-436 cells

| SMILES | EC50 [1] [nM] | EC50 [2] [nM] |
| --- | --- | --- |
| CNC(=O)c1ccc(N2CCN(Cc3cnc4c(C)c(C)c(=O)[nH]c4c3)CC2)cn1 [Example 95] | 3.9 | 2.9 |
| CCc1cc2ncc(CN3CCN(c4ccc(C(=O)NC[C@@H]5CCOC5)nc4)CC3)cc2[nH]c1=O [Example 40] | 6.7 | 4.4 |
| O=C(NC1CC1)c1ccc(N2CCN(Cc3cnc4c(c3)[nH]c(=O)c3ccoc34)CC2)cn1 [Example 142] | 8.7 | 4 |
| Cc1cc2ncc([C@@H](C)N3CCN(c4ccc(C(=O)NC5CC5)nc4)CC3)cc2[nH]c1=O (single isomer, unassigned) [Example 127] | 15 | 7.3 |
| CCc1cc2ncc(CN3CCN(c4ccc(C(=O)NC)nn4)CC3)cc2[nH]c1=O [Example 61] | 6.3 | 4.8 |
| CCc1cc2ncc(CN3CCN(c4ccc(C(=O)NC)c(F)c4C#N)CC3)cc2[nH]c1=O [Example 145] | 1.9 | 1.1 |
| Cc1cc2ncc(CN3CCN(c4cccnc4C#N)CC3)cc2[nH]c1=O [Example 131] | 11 | 6.2 |
| CCc1cc2ncc(CN3CCN(c4ccncn4)CC3)cc2[nH]c1=O [Example 106] | 5.7 | 6.6 |
| CCc1cc2ccc(CN3CCN(c4ccc(C(=O)NC)c(=O)n4C)CC3)cc2[nH]c1=O [Example 89] | 3.5 | 2.5 |
| CCc1cc2ncc(CN3CCN(c4ccc(C(=O)NC[C@@H](C)OC)nc4)CC3)cc2[nH]c1=O [Example 60] | 14 | 5 |
| CCc1cc2nnc(CN3CCN(c4ccc(C(=O)NC)nc4)CC3)cc2[nH]c1=O [Example 86] | 6 | 6.1 |
| CNC(=O)c1ccc(N2CCN(Cc3cnc4c5c(c(=O)[nH]c4c3)CCC5)CC2)cn1 [Example 84] | 2.2 | 2 |
| CCc1cc2ncc(CN3CCN(c4ccc(C(=O)NCCOC)nc4)CC3)cc2[nH]c1=O [Example 42] | 3.3 | 4.1 |
| CCc1cc2ncc(CN3CCN(c4ccc(C(=O)NC5CC5)nc4C#N)CC3)cc2[nH]c1=O [Example 139] | 1.5 | 0.77 |
| CCc1cc2ncc(CN3CCN(c4ccc(C(=O)NCC(C)(C)O)nc4)CC3)cc2[nH]c1=O [Example 52] | 12 | 4 |
| CCc1nc2ncc(CN3CCN(c4ccc(C(=O)NC)nc4)CC3)cc2[nH]c1=O [Example 91] | 13 | 13 |

| SMILES | EC50 [1] [nM] | EC50 [2] [nM] |
| --- | --- | --- |
| CCc1cc2ncc(CN3CCN(c4ccc(NC(=O)N5CCOCC5)nc4)CC3)cc2[nH]c1=O [Example 101] | 17 | 9.8 |
| CCc1cc2ncc(CN3CCN(c4cccnc4C#N)CC3)cc2[nH]c1=O [Example 128, 3-{4-[(7-ethyl-6-oxo-5H-1,5-naphthyridin-3-yl)methyl]piperazin-1-yl}pyridine-2-carbonitrile] | 4.8 | 4.2 |
| CCc1cc2ncc(CN3CCN(c4ccc(C(=O)NCCC#N)nc4)CC3)cc2[nH]c1=O [Example 50] | 4.5 | 2.1 |
| [2H]C([2H])([2H])NC(=O)c1ccc(N2CCN(Cc3cnc4cc(CC)c(=O)[nH]c4c3)C[C@H]2C)c(C#N)n1 [Example 93] | 1.7 | 0.84 |
| CCc1cc2ncc(CN3CCN(c4ccccc4C#N)CC3)cc2[nH]c1=O [Example 130] | 3.3 | 2.3 |
| CCc1cc2ncc(CN3CCN(c4ccnnc4C#N)CC3)cc2[nH]c1=O [Example 120] | 2.7 | 1.7 |
| CCc1cc2ncc(CN3CCN(c4ccc(C(=O)N[C@@H]5CCOC5)nc4)CC3)cc2[nH]c1=O [Example 48] | 2.7 | 1.7 |
| CCc1cc2ncc(CN3CCN(c4ccc(C(=O)NC5COC5)nc4)CC3)cc2[nH]c1=O [Example 46] | 3.7 | 1.2 |
| CCc1cc2ncc(CN3CCN(c4cc(F)ccc4C#N)CC3)cc2[nH]c1=O [Example 132] | 6.7 | 4.4 |
| CCc1cc2ncc(CN3CCN(c4ccc(C(=O)NC)c(=O)n4C)CC3)cc2[nH]c1=O [Example 65] | 13 | 3.1 |
| CNC(=O)c1ccc(C2=CCN(Cc3cnc4cc(Cl)c(=O)[nH]c4c3)CC2)c(F)n1 [Example 153] | 0.95 | 0.74 |
| CCc1cc2ncc(CN3CCN(c4ccc(-n5cccn5)nc4)CC3)cc2[nH]c1=O [Example 92] | 11 | 10 |
| CNC(=O)c1ccc(N2CCN([C@H](C)c3cnc4cc(C)c(=O)[nH]c4c3)CC2)cn1 (single isomer, unassigned) [Example 125] | 8.5 | 13 |
| CCc1cc2ncc(CN3CCN(c4ccc(NC(=O)[C@H]5CCO5)nc4)CC3)cc2[nH]c1=O (racemic) [Example 103] | 6.6 | 5.2 |
| CCc1cc2ncc(CN3CCN(c4ccc(C(=O)NC(C)C)nc4)CC3)cc2[nH]c1=O [Example 43] | 2.4 | 3.2 |

Other lines, results leading:

| EC50 [1] [nM] | EC50 [2] [nM] | SMILES |
| --- | --- | --- |
| 2.8 | 1.8 | CNC(=O)c1ccc2c(n1)OC[C@@H]1CN(Cc3cnc4cc(C5CC5)c(=O)[nH]c4c3)CCN21 [Example 78] |
| 5.9 | 4.5 | O=C(NC1COC1)c1ccc(N2CCN(Cc3cnc4cc(C5CC5)c(=O)[nH]c4c3)CC2)cn1 [Example 81] |
| 39 | 41 | CNC(=O)c1ccc2c(c1F)OC[C@@H]1CN(Cc3cnc4cc(C)c(=O)[nH]c4c3)CCN21 [Example 94] |
| 3.5 | 0.9 | CCc1cc2ncc(CN3CCN(c4ccc(C(=O)N[C@H]5C[C@@H](C#N)C5)nc4)CC3)cc2[nH]c1=O [Example 58] |
| 17 | 6.4 | CCc1cc2ncc(CN3CCN(c4cc(F)c(C(=O)NC)cn4)CC3)cc2[nH]c1=O [Example 51] |
| 8.5 | 5.8 | CNC(=O)c1ccc2c(n1)OC[C@@H]1CN(Cc3cnc4cc(C)c(=O)[nH]c4c3)CCN21 [Example 77] |
| 490 | 160 | CCc1cc2ncc(CN3CCN4c5ccc(C(=O)NC)nc5OC[C@@H]4C3)cc2[nH]c1=O [Example 22B, (10S)-12-[(7-ethyl-6-oxo-5H-1,5-naphthyridin-3-yl)methyl]-N-methyl-8-oxa-1,6,12-triazatricyclo[8.4.0.0^{2,7}]tetradeca-2,4,6-triene-5-carboxamide] |
| 2.1 | 1 | O=C(NC1CC1)c1ccc(N2CCN(Cc3cnc4cc(C5CC5)c(=O)[nH]c4c3)CC2)c(F)n1 [Example 158] |
| 1.1 | 0.51 | O=C(NC1CC1)c1ccc(N2CCN(Cc3cnc4cc(Cl)c(=O)[nH]c4c3)CC2)c(F)n1 [Example 152] |
| 1.5 | 0.71 | CNC(=O)c1ccc(N2CCN(Cc3cnc4cc(C5CC5)c(=O)[nH]c4c3)CC2)c(C#N)n1 [Example 97] |
| 1.4 | 1.4 | CNC(=O)c1ccc(N2CCN(Cc3cnc4cc(C5CCC5)c(=O)[nH]c4c3)CC2)cn1 [Example 104] |
| 15 | 5.6 | [2H]C([2H])([2H])C([2H])([2H])NC(=O)c1ccc(N2CCN(Cc3cnc4cc(C5CC5)c(=O)[nH]c4c3)CC2)n(C)c1=O [Example 123] |
| 9.6 | 3.7 | CCc1cc2ncc(CN3CCN(c4ccc(C(=O)NC5COC5)nc4)[C@H](C)C3)cc2[nH]c1=O [Example 79] |
| 3.3 | 2.7 | CCc1cc2ncc(CN3CCN(c4cnc(C(=O)NC)c(F)c4)[C@H](C)C3)cc2[nH]c1=O [Example 39] |
| 37 | 9.8 | Cc1cc2ncc(CN3CCN(c4ccc(C(=O)NC5COC5)c(F)c4)CC3)cc2[nH]c1=O [Example 80] |
| 45 | 20 | CNC(=O)c1ncc(N2CCN(Cc3cnc4cc(C5CC5)c(=O)[nH]c4c3)[C@H]3C[C@H]32)cc1F (single isomer, unassigned) [Example 113] |
| 9.3 | 3.2 | Cc1cc2ncc(CN3CCN(c4ccc(C(=O)NC5CC5)nc4)CC3)cc2[nH]c1=O [Example 63] |
| 3.9 | 2.6 | CNC(=O)c1ncc(N2CCN(Cc3cnc4cc(C5CC5)c(=O)[nH]c4c3)CC2)cc1F [Example 100] |
| 4.3 | 5.8 | CNC(=O)c1ccc(N2CCN(Cc3cnc4cc(C5CC(F)(F)C5)c(=O)[nH]c4c3)CC2)cn1 [Example 140] |
| 1.4 | 0.5 | CNC(=O)c1ccc(N2CCN(Cc3cnc4cc(C)c(=O)[nH]c4c3)CC2)c(C#N)n1 [Example 37] |
| 2.4 | 1.4 | CCc1cc2ncc(CN3CCN(c4ccc(C(=O)NC5CC5)c(F)c4)CC3)cc2[nH]c1=O [Example 134] |
| 2.6 | 1.5 | CCc1cc2ncc(CN3CCN(c4ccc(NC(=O)C5CC5)nc4)CC3)cc2[nH]c1=O [Example 75] |
| 1.8 | 0.99 | [2H]C([2H])([2H])C([2H])([2H])NC(=O)c1ccc(N2CCN(Cc3cnc4cc(C5CC5)c(=O)[nH]c4c3)CC2)cn1 [Example 119] |
| 17 | 9.4 | CNC(=O)c1ccc(N2CCN(Cc3cnc4cc(N5CCC5)c(=O)[nH]c4c3)CC2)cn1 [Example 149] |
| 5.5 | 2.4 | CCc1cc2ncc(CN3CCN(c4ccc(C(=O)N[C@H]5CCC[C@@H]5O)nc4)CC3)cc2[nH]c1=O [Example 49] |
| 2.1 | 1.2 | [2H]C([2H])(c1cnc2cc(C3CC3)c(=O)[nH]c2c1)N1CCN(c2ccc(C(=O)NC3CC3)nc2)CC1 [Example 117] |
| 46 | 11 | CNC(=O)c1ccc(N2CCN([C@H](C)c3cnc4cc(C)c(=O)[nH]c4c3)C[C@H]2C)cn1 (single isomer, unassigned) [Example 122] |
| 13 | 12 | CNC(=O)c1ccc(N2CCN(Cc3cnc4cc([C@@H]5CC5(F)F)c(=O)[nH]c4c3)CC2)cn1 (single isomer, unassigned) [Example 143] |
| 43 | 35 | CNC(=O)c1ccc(N2CCN([C@@H](C)c3cnc4cc(C)c(=O)[nH]c4c3)C[C@H]2C)cn1 (single isomer, unassigned) [Example 121] |
